Source: patent US20260256792A1, “TREATMENT OF CHRONIC SPONTANEOUS URTICARIA BY ADMINISTERING (R)-2-[3-[4-AMINO-3-(2-FLUORO-4-PHENOXY-PHENYL)PYRAZOLO[3,4-D]PYRIMIDIN-1-YL]PIPERIDINE-1-CARBONYL]-4-METHYL-4-[4-(OXETAN-3-YL)PIPERAZIN-1-YL]PENT-2-ENENITRILE” (priority 2023, published 2026)

Tested on: moderate-to-severe chronic spontaneous urticaria (CSU)
Experiment: Phase 2 CSU study: hives severity score over 7 days (HSS7)
Assay type: in vivo, human
Design: key to HSS7 Change from baseline, Median / HSS7, Median / HSS7, Max / HSS7 Change from baseline, Q1 / HSS7 Change from baseline, Q3 / HSS7 Change from baseline, Max: 7-day sum of daily hive scores, each 0 = none to 3 = >50 hives
Source text: The study comprises a 12 week, randomized, double-blind, placebo-controlled, multi-center, dose-ranging efficacy and safety phase, followed by a 40 week open label extension (OLE) phase (see FIG. 1).
The study consists of three phases and an optional OLE phase.
The UAS is a validated PRO measure. The daily UAS is the sum of the daily Hive Severity Score (HSS, ranging from 0=None to 3=more than 50 hives) and the daily Itch Severity Score (ISS, ranging from 0=None to 3=intense), the 2 key urticaria signs and symptoms which are wheals and itch. The daily UAS scores range from 0 to 6 point/day. Daily UAS scores are summed over 7-day period to create the UAS7, ranging from 0 to 42, and are composed of the HSS7 and ISS7 components. […] Patients were to complete the UAS using the e-diary. The e-diary was to be used once daily on the same time of each day recording of participant's answers to the urticaria activity score over 7 days (UAS7) questionnaire. For participants who entered the OLE phase, their answers to the UAS7 questionnaire were also to be collected from Week 20 to Week24 and from Week 48 to Week 52.
The following secondary endpoints were to be analyzed using the same approach as for the primary endpoint: • Change from baseline in UAS7 at Week 4 • Change from baseline in UAS7 at Week 12 (for US and US reference countries) • Change from baseline in ISS7 at Week 12 (except US and US reference countries) • Change from baseline in HSS7 at Week 12

[1] = Week 10, 400 mg BID, Omalizumab-Naïve Population
[2] = Week 10, 400 mg BID, Patients with Prior Omalizumab Use
[3] = Week 10, 400 mg QPM, Omalizumab-Naïve Population
[4] = Week 10, 400 mg QPM, Patients with Prior Omalizumab Use
[5] = Week 10, 400 mg TID, Omalizumab-Naïve Population
[6] = Week 10, 400 mg TID, Patients with Prior Omalizumab Use
[7] = Week 11, 400 mg BID, Omalizumab-Naïve Population
[8] = Week 11, 400 mg BID, Patients with Prior Omalizumab Use
[9] = Week 11, 400 mg QPM, Omalizumab-Naïve Population
[10] = Week 11, 400 mg QPM, Patients with Prior Omalizumab Use
[11] = Week 11, 400 mg TID, Omalizumab-Naïve Population
[12] = Week 11, 400 mg TID, Patients with Prior Omalizumab Use
[13] = Week 12, 400 mg BID, Omalizumab-Naïve Population
[14] = Week 12, 400 mg BID, Patients with Prior Omalizumab Use
[15] = Week 12, 400 mg QPM, Omalizumab-Naïve Population
[16] = Week 12, 400 mg QPM, Patients with Prior Omalizumab Use
[17] = Week 12, 400 mg TID, Omalizumab-Naïve Population
[18] = Week 12, 400 mg TID, Patients with Prior Omalizumab Use

SMILES: CC(C)(C=C(C#N)C(=O)N1CCC[C@@H](n2nc(-c3ccc(Oc4ccccc4)cc3F)c3c(N)ncnc32)C1)N1CCN(C2COC2)CC1 [rilzabrutinib, (R)-2-[3-[4-amino-3-(2-fluoro-4-phenoxy-phenyl)pyrazolo[3,4-d]pyrimidin-1-yl]piperidine-1-carbonyl]-4-methyl-4-[4-(oxetan-3-yl)piperazin-1-yl]pent-2-enenitrile]
- HSS7, Median [1]: 6.50
- HSS7 Change from baseline, Mean (SD) [1]: −6.95 (5.65)
- HSS7 Change from baseline, Median [1]: −6.50
- HSS7 Percent change from baseline, Mean (SD) [1]: −53.45 (42.56) %
- HSS7 Percent change from baseline, Median [1]: −47.73%
- HSS7, Mean (SD) [2]: 5.20 (7.19)
- HSS7, Median [2]: 2.00
- HSS7 Change from baseline, Mean (SD) [2]: −9.60 (9.13)
- HSS7 Change from baseline, Median [2]: −12.00
- HSS7 Percent change from baseline, Mean (SD) [2]: −58.10 (53.18) %
- HSS7 Percent change from baseline, Median [2]: −90.48%
- HSS7, Mean (SD) [3]: 9.88 (5.93)
- HSS7, Median [3]: 8.00
- HSS7 Change from baseline, Mean (SD) [3]: −5.27 (5.66)
- HSS7 Change from baseline, Median [3]: −4.00
- HSS7 Percent change from baseline, Mean (SD) [3]: −33.86 (34.68) %
- HSS7 Percent change from baseline, Median [3]: −28.64%
- HSS7, Mean (SD) [4]: 8.00 (NC)
- HSS7, Median [4]: 8.00
- HSS7 Change from baseline, Mean (SD) [4]: −12.00 (NC)
- HSS7 Change from baseline, Median [4]: −12.00
- HSS7 Percent change from baseline, Mean (SD) [4]: −60.00 (NC) %
- HSS7 Percent change from baseline, Median [4]: −60.00%
- HSS7, Mean (SD) [5]: 5.87 (5.06)
- HSS7, Median [5]: 4.50
- HSS7 Change from baseline, Mean (SD) [5]: −8.20 (5.62)
- HSS7 Change from baseline, Median [5]: −9.00
- HSS7 Percent change from baseline, Mean (SD) [5]: −57.32 (34.80) %
- HSS7 Percent change from baseline, Median [5]: −63.10%
- HSS7, Mean (SD) [6]: 3.00 (4.65)
- HSS7, Median [6]: 1.00
- HSS7 Change from baseline, Mean (SD) [6]: −13.03 (7.21)
- HSS7 Change from baseline, Median [6]: −13.00
- HSS7 Percent change from baseline, Mean (SD) [6]: −79.31 (25.96) %
- HSS7 Percent change from baseline, Median [6]: −91.50%
- HSS7, Mean (SD) [7]: 7.13 (7.07)
- HSS7, Median [7]: 5.83
- HSS7 Change from baseline, Mean (SD) [7]: −7.34 (6.14)
- HSS7 Change from baseline, Median [7]: −7.00
- HSS7 Percent change from baseline, Mean (SD) [7]: −52.82 (41.27) %
- HSS7 Percent change from baseline, Median [7]: −54.55%
- HSS7, Mean (SD) [8]: 4.80 (7.46)
- HSS7, Median [8]: 0.00
- HSS7 Change from baseline, Mean (SD) [8]: −10.00 (9.67)
- HSS7 Change from baseline, Median [8]: −12.00
- HSS7 Percent change from baseline, Median [8]: −100.00%
- HSS7, Mean (SD) [9]: 10.18 (6.18)
- HSS7, Median [9]: 9.33
- HSS7 Change from baseline, Mean (SD) [9]: −5.18 (5.64)
- HSS7 Change from baseline, Median [9]: 3.00
- HSS7 Percent change from baseline, Mean (SD) [9]: −33.21 (36.21) %
- HSS7 Percent change from baseline, Median [9]: −30.00%
- HSS7, Mean (SD) [10]: 9.00 (NC)
- HSS7, Median [10]: 9.00
- HSS7 Change from baseline, Mean (SD) [10]: −11.00 (NC)
- HSS7 Change from baseline, Median [10]: −11.00
- HSS7 Percent change from baseline, Mean (SD) [10]: −55.00 (NC) %
- HSS7 Percent change from baseline, Median [10]: −55.00%
- HSS7, Mean (SD) [11]: 6.17 (5.40)
- HSS7, Median [11]: 5.83
- HSS7 Change from baseline, Mean (SD) [11]: −7.90 (6.07)
- HSS7 Change from baseline, Median [11]: −8.00
- HSS7 Percent change from baseline, Mean (SD) [11]: −55.30 (37.59) %
- HSS7 Percent change from baseline, Median [11]: −61.11%
- HSS7, Mean (SD) [12]: 2.67 (4.84)
- HSS7, Median [12]: 0.00
- HSS7 Change from baseline, Mean (SD) [12]: −13.36 (7.26)
- HSS7 Change from baseline, Median [12]: −13.00
- HSS7 Percent change from baseline, Mean (SD) [12]: −82.14 (27.76) %
- HSS7 Percent change from baseline, Median [12]: −100.00%
- HSS7, Mean (SD) [13]: 7.52 (7.21)
- HSS7, Median [13]: 7.00
- HSS7 Change from baseline, Mean (SD) [13]: −7.09 (6.54)
- HSS7 Change from baseline, Median [13]: −4.50
- HSS7 Percent change from baseline, Mean (SD) [13]: −49.56 (40.81) %
- HSS7 Percent change from baseline, Median [13]: −37.50%
- HSS7, Mean (SD) [14]: 4.25 (8.50)
- HSS7, Median [14]: 0.00
- HSS7 Change from baseline, Median [14]: −14.50
- HSS7 Percent change from baseline, Mean (SD) [14]: −75.00 (50.00) %
- HSS7 Percent change from baseline, Median [14]: −100.00%
- HSS7, Median [15]: 8.58
- HSS7 Change from baseline, Mean (SD) [15]: −4.85 (5.63)
- HSS7 Change from baseline, Median [15]: −4.00
- HSS7 Percent change from baseline, Mean (SD) [15]: −31.20 (34.88) %
- HSS7 Percent change from baseline, Median [15]: −33.18%
- HSS7, Mean (SD) [16]: 9.00 (NC)
- HSS7, Median [16]: 9.00
- HSS7 Change from baseline, Mean (SD) [16]: −11.00 (NC)
- HSS7 Change from baseline, Median [16]: −11.00
- HSS7 Percent change from baseline, Mean (SD) [16]: −55.00 (NC) %
- HSS7 Percent change from baseline, Median [16]: −55.00%
- HSS7, Mean (SD) [17]: 5.23 (4.86)
- HSS7, Median [17]: 4.08
- HSS7 Change from baseline, Mean (SD) [17]: −8.77 (5.84)
- HSS7 Change from baseline, Median [17]: −8.00
- HSS7 Percent change from baseline, Mean (SD) [17]: −60.93 (34.27) %
- HSS7 Percent change from baseline, Median [17]: −64.29%
- HSS7, Mean (SD) [18]: 3.20 (5.22)
- HSS7, Median [18]: 0.00
- HSS7 Change from baseline, Mean (SD) [18]: −14.40 (7.60)
- HSS7 Change from baseline, Median [18]: −17.00
- HSS7 Percent change from baseline, Mean (SD) [18]: −78.57 (29.45) %
- HSS7 Percent change from baseline, Median [18]: −100.00%
